The target in assay [1] is T1, MMP-2 (Homo sapiens, UniProt P08253).
T1 construct: purchased Sino Biological 10082-HNAH
T1 sequence (P08253 110-660): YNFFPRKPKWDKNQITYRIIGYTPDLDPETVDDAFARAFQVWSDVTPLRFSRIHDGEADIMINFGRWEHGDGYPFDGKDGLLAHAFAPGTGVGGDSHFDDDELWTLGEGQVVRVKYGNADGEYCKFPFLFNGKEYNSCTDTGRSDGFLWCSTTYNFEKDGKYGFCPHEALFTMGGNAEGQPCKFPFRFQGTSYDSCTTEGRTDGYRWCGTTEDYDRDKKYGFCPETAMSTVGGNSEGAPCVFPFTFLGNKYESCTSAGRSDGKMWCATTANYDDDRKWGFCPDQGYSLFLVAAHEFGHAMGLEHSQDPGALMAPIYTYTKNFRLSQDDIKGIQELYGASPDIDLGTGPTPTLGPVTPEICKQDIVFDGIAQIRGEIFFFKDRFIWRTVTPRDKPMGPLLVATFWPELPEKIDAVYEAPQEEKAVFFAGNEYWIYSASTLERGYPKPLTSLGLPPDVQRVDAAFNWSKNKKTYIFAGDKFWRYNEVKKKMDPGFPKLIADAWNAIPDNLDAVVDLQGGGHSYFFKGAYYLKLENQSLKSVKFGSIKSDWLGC
Briefly: MMP-2 inhibition assay (fluorogenic peptide substrate). Type of assay: biochemical. The method in brief:
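Hydrolysis of DNP-Pro-Leu-Gly-Met-Trp-Ser-Arg (25 μM final) was tracked kinetically at em 360 nm over 30 min. Enzymes, APMA-activated and at 10 nM (MMP-9) or 6.5 nM (MMP-2) final, sat 30 min at RT with inhibitor in pH 7.5 Tris buffer with CaCl2 and Brij 35 first. Logistic fitting of Vmax against concentration gave IC50, in triplicate.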

For assay [2], the target named is T2, MMP-9 (Homo sapiens, UniProt P14780).
T2 construct: purchased Sino Biological 10327-HNAH
T2 sequence (P14780 107-707 limits assumed): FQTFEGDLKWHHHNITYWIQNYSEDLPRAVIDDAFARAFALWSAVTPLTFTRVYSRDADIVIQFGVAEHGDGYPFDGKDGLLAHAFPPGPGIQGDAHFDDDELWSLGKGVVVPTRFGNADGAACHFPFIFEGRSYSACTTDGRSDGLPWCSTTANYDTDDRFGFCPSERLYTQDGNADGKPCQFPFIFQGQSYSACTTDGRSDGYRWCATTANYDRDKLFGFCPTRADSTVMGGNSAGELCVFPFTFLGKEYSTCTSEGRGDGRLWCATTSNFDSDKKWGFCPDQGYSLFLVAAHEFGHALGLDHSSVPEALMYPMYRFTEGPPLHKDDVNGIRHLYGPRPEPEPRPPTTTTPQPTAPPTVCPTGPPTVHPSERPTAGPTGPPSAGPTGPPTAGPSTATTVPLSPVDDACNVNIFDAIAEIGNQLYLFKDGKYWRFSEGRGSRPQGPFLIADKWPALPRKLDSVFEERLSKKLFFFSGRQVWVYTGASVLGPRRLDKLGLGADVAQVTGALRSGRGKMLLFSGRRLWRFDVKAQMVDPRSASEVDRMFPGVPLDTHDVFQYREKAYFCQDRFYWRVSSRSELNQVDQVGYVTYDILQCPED
Briefly: Dynamic dual-pharmacophore DEL selection against MMP-9, NGS decoding. The settings on record: MMP9 selection. Type of assay: binding. An excerpt:
Matrix metalloproteinases (MMPs) are zinc-dependent endopeptidases capable of degrading and remodeling extracellular matrix components[46],[47]. They are attractive therapeutic targets as high expression levels were detected in various diseases, such as inflammatory diseases, and at different stages of cancers, including metastasis, invasion, and angiogenesis[47]–[53]. As shown in Supplementary Fig. 3c, we performed selections against the two gelatinases (human MMP-2 and human MMP-9) to identify binding fragments for later design and synthesis of small molecule inhibitors. After selection, the three sub-libraries were decoded, and the enrichment was calculated by dividing the post-selection fraction (count/total counts) by the pre-selection fraction (Fig. 4a and Supplementary Fig. 13).
4 µg of MMP-2/MMP-9 was dissolved in 100 µl of selection buffer containing 25 mM Tris-base, 10 mM CaCl2, 150 mM NaCl, 0.05% Tween 20, pH 7.5. 10 µl of 4-Aminophenylmercuric acetate (APMA) (100 mM) solution was added to the protein solution and incubated at 37 °C for 1 h. After activation, the solution was added on top of 40 µl pre-washed Ni-NTA resin and incubated for 30 min on a rotary shaker. The supernatant was discarded, and the resin was washed three times with the selection buffer.
For each independent selection, three sub-libraries were mixed in the selection buffer with a final concentration of 40 nM of each sub-library in 100 µl. The mixture was heat denatured at 90 °C for 1 min and slowly cooled down to allow the formation of the trio-pharmacophore library. The dynamic dual-pharmacophore DEL was provided by DyNAbind GmbH (Merck, DYNA001).
The assembled library was incubated with the protein-bound solid support for 2 h at RT on a rotary shaker. In parallel, selection on bare solid support served as the negative control to exclude promiscuous binders on the resin. After panning, the supernatant was discarded, and the resin was washed three times with 1 ml selection buffer. Finally, 100 µl of 50 mM Tris buffer, pH 7.4 was added to resuspend the resin and the resin was incubated at 95 °C for 5 min to denature the protein, release, and collect the bound library members.
The eluted library members were subjected to sample preparation for NGS. NGS preparation was achieved by two-step PCR. First, the individual selection was indexed using primers containing unique sequences corresponding to each selection. The amplified product was purified from 2% agarose gel. Second, the purified DNA from all selections were pooled in equal amount and subjected to the 2nd PCR step to attach sequences compatible with the NGS flow cell and the sequencing primers. NGS was performed by Novogene UK with Novaseq 6000. Raw data files (fastq files) obtained were decoded using a custom python script and excel. The sequence reads corresponding to each sample was retrieved by searching for the correct index unique to each selection. Then, the code region was extracted from each sequence and assigned to the corresponding identity. The count of each code in each selection sample was obtained by looping through the total reads and counting the occurrence of each code. The enrichment fold of each compound was calculated by first, dividing the count by the total count to get the abundance, second, the abundance after the selection was divided by the abundance of pre-selection to reflect the distribution change of the compound. Next, the enrichment fold was plotted against the count for each member of the library to give the scatter plots as in Fig. 4.

Entries after “also recorded” stand apart in the source; their conditions may differ. Read-outs that look alike come from different tables or passages of the source.

In the case of `O=C(O)Cn1cnc2c(oc3ccccc32)c1=O` [Compound 182], the remaining activity at 0.0152381 µM in assay [1] (Figure 5a, fragment concentration 0.0152381 µM, read-out: Normalized activity (Mean)) was determined as 97.3%. The remaining activity at 0.0761905 µM in assay [1] (Figure 5a, fragment concentration 0.0761905 µM, read-out: Normalized activity (Mean)) amounted to 97.1%. In assay [1] (Figure 5a, fragment concentration 0.380952 µM, read-out: Normalized activity (Mean)), the remaining activity at 0.380952 µM was 98.7%. Also, the remaining activity at 1.90476 µM in assay [1] (Figure 5a, fragment concentration 1.90476 µM, read-out: Normalized activity (Mean)) was 98.1%. The remaining activity at 9.52381 µM in assay [1] (Figure 5a, fragment concentration 9.52381 µM, read-out: Normalized activity (Mean)) was 87.4%. In addition, in assay [1] (Figure 5a, fragment concentration 47.619 µM, read-out: Normalized activity (Mean)), the remaining activity at 47.619 µM was 71.6%. In addition, the remaining activity at 238.095 µM in assay [1] (Figure 5a, fragment concentration 238.095 µM, read-out: Normalized activity (Mean)) worked out at 16.9%. Besides, the remaining activity at 1190.48 µM in assay [1] (Figure 5a, fragment concentration 1190.48 µM, read-out: Normalized activity (Mean)) amounted to 0%. Also, the remaining activity at 0.0152 µM in assay [1] (MMP-2, concentration 0.0152 µM, read-out: Mean (MMP-2, Supplementary fig 16)) came to 97.3%. Also, the remaining activity at 0.08 µM in assay [1] (MMP-2, concentration 0.08 µM, read-out: Mean (MMP-2, Supplementary fig 16)) turned out to be 97.1%. Moreover, in assay [1] (MMP-2, concentration 1.90 µM, read-out: Mean (MMP-2, Supplementary fig 16)), the remaining activity at 1.9 µM is 98.2%. For the same compound, the remaining activity at 9.52 µM in assay [1] (MMP-2, concentration 9.52 µM, read-out: Mean (MMP-2, Supplementary fig 16)) turned out to be 87.4%. Moreover, the remaining activity at 47.62 µM in assay [1] (MMP-2, concentration 47.62 µM, read-out: Mean (MMP-2, Supplementary fig 16)) turned out to be 71.6%. The remaining activity at 238.1 µM in assay [1] (MMP-2, concentration 238.10 µM, read-out: Mean (MMP-2, Supplementary fig 16)) is 16.9%. In addition, the remaining activity at 0.38 µM in assay [1] (MMP-2, concentration 0.38 µM, read-out: Mean (MMP-2, Supplementary fig 16)) was 98.7%. The IC50 in assay [1] (mean ± SE, n.d: not detected, Fig. 5d unit inferred, µM, read-out: IC50) was found to be 95.8 µM. The “Enrichment Fold” value in assay [2] (3L sub-library) came out at 0.7692; in assay [2] (5L sub-library) it was 1.565. Besides, the Count in assay [2] (3L sub-library, sequence count per compound ID) was found to be 816; in assay [2] (5L sub-library, sequence count per compound ID), 4821.
`O=C(O)CNC(=O)NC12CC3CC(CC(C3)C1)C2` [Compound 66]: the remaining activity at 0.0156098 µM in assay [1] (Figure 5a, fragment concentration 0.0156098 µM, read-out: Normalized activity (Mean)) is 92.7%. Also, the remaining activity at 0.0780488 µM in assay [1] (Figure 5a, fragment concentration 0.0780488 µM, read-out: Normalized activity (Mean)) was 95.8%. The remaining activity at 0.390244 µM in assay [1] (Figure 5a, fragment concentration 0.390244 µM, read-out: Normalized activity (Mean)) amounted to 93.9%. Also, the remaining activity at 1.95122 µM in assay [1] (Figure 5a, fragment concentration 1.95122 µM, read-out: Normalized activity (Mean)) came out at 110%. In addition, the remaining activity at 9.7561 µM in assay [1] (Figure 5a, fragment concentration 9.7561 µM, read-out: Normalized activity (Mean)) stood at 93.7%. Moreover, the remaining activity at 48.7805 µM in assay [1] (Figure 5a, fragment concentration 48.7805 µM, read-out: Normalized activity (Mean)) amounted to 92.7%. Moreover, the remaining activity at 243.902 µM in assay [1] (Figure 5a, fragment concentration 243.902 µM, read-out: Normalized activity (Mean)) stood at 92.2%. In addition, the remaining activity at 1219.51 µM is 85.5% in assay [1] (Figure 5a, fragment concentration 1219.51 µM, read-out: Normalized activity (Mean)) and 85.5% in assay [1] (MMP-2, concentration 1219.51 µM, read-out: Mean (dose-response, Supplementary fig 17)). Also, the remaining activity at 0.0156 µM in assay [1] (MMP-2, concentration 0.0156 µM, read-out: Mean (dose-response, Supplementary fig 17)) was determined as 92.7%. Besides, in assay [1] (MMP-2, concentration 0.08 µM, read-out: Mean (dose-response, Supplementary fig 17)), the remaining activity at 0.08 µM is 95.8%. Moreover, the remaining activity at 0.39 µM in assay [1] (MMP-2, concentration 0.39 µM, read-out: Mean (dose-response, Supplementary fig 17)) was found to be 93.9%. Moreover, the remaining activity at 1.95 µM in assay [1] (MMP-2, concentration 1.95 µM, read-out: Mean (dose-response, Supplementary fig 17)) is 110%. Also, in assay [1] (MMP-2, concentration 9.76 µM, read-out: Mean (dose-response, Supplementary fig 17)), the remaining activity at 9.76 µM was found to be 93.7%. Moreover, in assay [1] (MMP-2, concentration 48.78 µM, read-out: Mean (dose-response, Supplementary fig 17)), the remaining activity at 48.78 µM is 92.7%. Also, in assay [1] (MMP-2, concentration 243.90 µM, read-out: Mean (dose-response, Supplementary fig 17)), the remaining activity at 243.9 µM came out at 92.2%. Further, the inhibitory effect entry in assay [1] (in words) is recorded as “No inhibitory effects could be measured; also recorded: did not exhibit meaningful activity”. In addition, the “Enrichment Fold” value in assay [2] (3L sub-library) is 0.3958; in assay [2] (5L sub-library), 1.238. Also, the Count in assay [2] (3L sub-library, NGS sequence count) is 87; in assay [2] (5L sub-library, NGS sequence count), 2487.

Source of the values: article PMC10023787, “Trio-pharmacophore DNA-encoded chemical library for simultaneous selection of fragments and linkers” (Nature Communications, 2023).
